# In patent US11918628B2, “Controlled-release PTH compound” (ASCENDIS PHARMA BONE DISEASES A/S, priority 2016, dated 2024):
# How the values were obtained:
# [1] = tested on: patients with hypoparathyroidism; conditions: cited from earlier work
# rats = conditions: daily injections; cited from earlier work
# TPTx rats = assay: 28-days study in thyroparathyroidectomised (TPTx) rats with daily subcutaneous injections of conjugate 18 or PTH(1-84); type: in vivo, rat
# Protocol: Quantitative measurements of serum calcium (sCa), urinary calcium and serum phosporous (sP) were performed on a Roche-Hitachi P800 modular biochemistry instrument.
# This study was performed in order to test and compare the effect of daily subcutaneous injection of compound 18 and PTH(1-84), the current standard of care, in an animal disease model relevant for investigating treatment of hypoparathyroidism (HP). Rats subjected to thyroparathyroidectomy (TPTx) by blunt dissection are unable to produce parathyroid hormone, PTH, the major regulator of calcium homeostasis. […] 17 weeks old female SD TPTx rats (n=9/group) were dosed subcutaneously for 28 days with compound 18 ([…]; 1.2 nmol/kg/d, in 10 mM succinic acid, 46 g/L mannitol, pH 4.0), PTH(1-84) (70 μg PTH eq/kg/d; 7.3 nmol/kg/d; in 10 mM citrate, mannitol 39.0 g/L, pH 5.0) or vehicle. Additionally, one group of sham operated rats (n=9) representing normophysiological background control were also given vehicle. Serum calcium (sCa) and phosporous (sP) levels in the animals were measured pre- and post-dose on days 1, 6, 12 and 27. Moreover, bone turnover markers (P1NP and CTx) were measured and bone quality assessed by ex vivo pQCT.
# patients = conditions: 6-year follow-up; cited from earlier work
# [2] = tested on: patients with hypoparathyroidism; conditions: cited from earlier work; remark: listed apart in the source
Compound,"daily dose with pump delivery, lower than with the twice daily injection regimen ([1]; pump delivery versus twice daily injection)","calcium levels with pump delivery ([1]; pump delivery, over 6-months)",urinary calcium excretion with pump delivery ([1]; pump delivery),osteosarcoma rate (rats),"trabecular and cortical BMD/bone in vertebrae after 28 days of treatment (TPTx rats; TPTx rats, 28 days daily sc)","trabecular BMD compared to both control groups (TPTx rats; TPTx rats, 28 days daily sc, 7.3 nmol/kg/d)","sCa ratio treated/sham-control at day 12 (TPTx rats; TPTx rats, daily sc, day 12)","effect on serum phosphorous (sP) (TPTx rats; TPTx rats, daily sc, compound 18 1.2 nmol/kg/d, PTH(1-84) 7.3 nmol/kg/d)","effect on serum calcium (sCa) (TPTx rats; TPTx rats, daily sc, compound 18 1.2 nmol/kg/d, PTH(1-84) 7.3 nmol/kg/d, versus vehicle-injected TPTx rats)","serum calcium (sCa) at day 12 (TPTx rats; female SD TPTx rats, daily sc, day 12)",bone mineral density (BMD) by DXA (patients),bone turnover markers (patients),urinary calcium excretion 2-8 hours after injection ([2]; 2-8 hours after injection),urinary calcium excretion over the 24-hour period ([2]; 24-hour period after injection),urinary phosphate excretion ([2]; after injection),"participants who achieved normal blood calcium levels on reduced doses of calcium supplements and active forms of vitamin D ([2]; pivotal trial, once-daily sc, adjunct to vitamin D and calcium)",patients who developed hypercalcemia at one or more measurements during a 24-hour period ([2]; serum calcium monitored after injection),"incidences of hypercalcemia, hypocalcemia or hypercalciuria relative to conventional therapy ([2]; treated patients)"
CC[C@H](C)[C@H](NC(=O)[C@H](CCC(=O)O)NC(=O)[C@H](CO)NC(=O)[C@@H](NC(=O)[C@@H](N)CO)C(C)C)C(=O)N[C@@H](CCC(N)=O)C(=O)N[C@@H](CC(C)C)C(=O)N[C@@H](CCSC)C(=O)N[C@@H](Cc1cnc[nH]1)C(=O)N[C@@H](CC(N)=O)C(=O)N[C@@H](CC(C)C)C(=O)NCC(=O)N[C@@H](CCCCN)C(=O)N[C@@H](Cc1cnc[nH]1)C(=O)N[C@@H](CC(C)C)C(=O)N[C@@H](CC(N)=O)C(=O)N[C@@H](CO)C(=O)N[C@@H](CCSC)C(=O)N[C@@H](CCC(=O)O)C(=O)N[C@@H](CCCN=C(N)N)C(=O)N[C@H](C(=O)N[C@@H](CCC(=O)O)C(=O)N[C@@H](Cc1c[nH]c2ccccc12)C(=O)N[C@@H](CC(C)C)C(=O)N[C@@H](CCCN=C(N)N)C(=O)N[C@@H](CCCCN)C(=O)N[C@@H](CCCCN)C(=O)N[C@@H](CC(C)C)C(=O)N[C@@H](CCC(N)=O)C(=O)N[C@@H](CC(=O)O)C(=O)N[C@H](C(=O)N[C@@H](Cc1cnc[nH]1)C(=O)N[C@@H](CC(N)=O)C(=O)N[C@@H](Cc1ccccc1)C(=O)O)C(C)C)C(C)C [PTH(1-34)],65%,"normal, steady state calcium levels with minimal fluctuation",marked reduction,dose dependent increase,,,,,,,,,,,,,,
"PTH(1-84): Natpara, PTH(1-84), polypeptide with the sequence of SEQ ID NO:1; the current standard of care",,,,dose dependent increase,anabolic effect,significant increase,0.76,minimal decrease,did not lead to increase in sCa,8.1 mg/dL,increases in lumbar spine and declines in the distal ⅓ radius,remained greater than pretreatment values,reduced,did not change,increased only during the first 8 hours,42%,71%,has not demonstrated an ability to reduce
